{"source": "patent US20230113802A1", "about": "“COMPOSITION AND METHOD TO PREPARE LONG-ACTING INJECTABLE SUSPENSION CONTAINING MULTIPLE CANCER DRUGS” (University of Washington, priority 2020, published 2023)", "test": "Pharmacokinetic study of GT in DcNPs compared to CrEL (Example 2), plasma G, T and dFdU", "assay_type": "in vivo, BALB/c mice", "text": "Drugs extracted from biological matrices such as plasma or tissue homogenates were quantified by a Shimadzu HPLC system coupled to a 3200 QTRAP mass spectrometer (Applied Biosystems, Grand Island, N.Y.). The HPLC system consisted of two Shimadzu LC-20A pumps, a DGU-20A5 degasser, and a Shimadzu SIL-20AC HT autosampler. The mass spectrometer was equipped with an electrospray ionization (ESI) TurbolonSpray source. The system was operated with Analyst software, version 1.5.2 (ABSciex, Framingham, Mass.). Chromatographic separation of G and T was achieved using a Synergi column (100×2.0 mm; 4-μm particle size) (Phenomenex, Torrance, Calif.) with an inline C8 guard column (4.0×2.0 mm) also from Phenomenex. The flow rate was set to 0.5 mL/min with a 5 μl sample injection volume. The mobile phase for separation consisted of pump A (20 mM Ammonium Acetate in water) and B (Reagent Alcohol). […] The needle was washed with isopropanol after each injection. Analytes were monitored using multiple-reaction monitoring (MRM) for positive ions.\nStatistical comparisons were performed using 2-sided t-tests with Welch's correction for unequal variances. Significance probability α was set at 0.05. Pharmacokinetic parameters from non-compartmental analysis were calculated using the trapezoidal rule and relevant pharmacokinetic equations shown in Table 3.", "data": [{"smiles": "O=c1ccn([C@@H]2O[C@H](CO)[C@@H](O)C2(F)F)c(=O)[nH]1", "note": "[dFdU, 2′,2′-difluoro-deoxyuridine]", "values": [{"measurement": "plasma dFdU times higher than G at 3 hours", "setting": "CrEL control dosage form", "value": 50, "unit": "times"}, {"measurement": "plasma dFdU times lower than G at 3 hours", "setting": "GT DcNP dosage form", "value": 3.4, "unit": "times"}, {"measurement": "plasma concentration within 15 minutes", "setting": "after GT in CrEL control dosage form IV, mice", "value": 11836.7, "unit": "ng/mL"}, {"measurement": "concentration at 3 h", "setting": "female, BALB/c, mouse, plasma, intravenous, after control CrEL dosing, 50/5 mg/kg G/T IV, mice", "value": 4340, "unit": "ng/mL"}]}]}
